Assay [1] addresses T1, GLP-1R (Homo sapiens, UniProt P43220). Nature of the assay: Tag-lite binding assay (competition with GLP-1 receptors red agonist). The conditions noted are these: for IC50: HEK293 GLP-1 cells labeled with SNAP-Lumi4-Tb, red agonist 4.917 nM, 23° C., 2 h; for Ki: calculated from sample IC50 and red agonist Kd. As to the method: B. Tag-Lite Binding Assay
The cell line was constructed by WuXi.
10) Dispense cells into cell plate (1.8 M cells/well in 2 ml medium of 6-well plate, total 4 wells).
Second Day: Tag-Lite Binding Assay
3) The cell culture medium is removed from the 6-well plate and then 1 mL of Tag-lite SNAP-Lumi4-Tb diluted in Tag-lite labeling medium are added gently on the cells.
7) The testing compounds and reference compound are serially diluted with 3-fold, 10 points using Echo, then transfer 100 nL compounds to the assay plate.
8) Add the labeled cells to each well according to the plate map, 10000 cells/10 uL/well. Centrifuge the plate at 1000 rpm for 1 min.
9) Incubate the plate at 23° C., 30 min.
10) Add 50 nL of red agonist (final conc.: 4.917 nM) to destination plate using Echo.
11) Incubate the plate at 23° C. for 2 h.
12) Read the plate on an HTRF® compatible reader (at 665 nm and 620 nm).
% Inhibition=100%−(Ratio−LC)/(HC−LC)*100%
HC: The average ratio of adding DMSO wells
LC: The average ratio of adding the top concentration of reference compounds wells
b) The “log (inhibitor) vs. response—Variable slope” model in GraphPad Prism 5.0 was used to fit the dose-response curve of each sample. The sample concentration (x) and its corresponding % Inhibition data (y) were substituted into the model. The sample concentration (abscissa) was x=log(x) transformed. The transformed xy was used as the sample curve to obtain the IC50.
c) Calculate the sample Ki according to the sample IC50 and red agonist Kd. S in the formula is the actual used concentration of red agonist.

Assay [2] deals with T1, GLP-1R. In words: GLP-1R agonist cAMP stimulation assay (HTRF cAMP). In kind it is cell-based. The following applies: HEK293 cell line expressing GLP-1 target; HTRF cAMP agonist mode, 30 min at RT. In a few lines:
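GLP-1R-expressing cells were stimulated with 10-point, 3-fold compound dilutions for 30 min at RT; HTRF cAMP detection reagents were then added for 60 min and the 665/615 ratio read. Ratios were converted to cAMP via a standard curve and % activity scaled between DMSO and top-concentration GLP-1(7-37) reference wells.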
(In general: In TR-FRET formats the signal depends on donor and acceptor labels being close together.)

T1 sequence (P43220 24-463): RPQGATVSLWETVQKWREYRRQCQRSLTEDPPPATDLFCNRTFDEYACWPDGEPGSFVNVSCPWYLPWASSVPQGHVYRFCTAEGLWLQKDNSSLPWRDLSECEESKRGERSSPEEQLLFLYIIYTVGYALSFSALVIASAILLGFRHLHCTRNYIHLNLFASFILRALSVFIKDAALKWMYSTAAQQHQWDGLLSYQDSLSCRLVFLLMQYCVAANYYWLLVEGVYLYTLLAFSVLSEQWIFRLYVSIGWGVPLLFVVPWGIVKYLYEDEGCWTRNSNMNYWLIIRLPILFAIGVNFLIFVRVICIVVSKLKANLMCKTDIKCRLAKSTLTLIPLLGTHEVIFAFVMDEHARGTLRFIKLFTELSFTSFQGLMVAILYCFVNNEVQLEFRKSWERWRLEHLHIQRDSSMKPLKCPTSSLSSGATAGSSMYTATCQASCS

As to `Cc1n[nH]c2ccc(NC(=O)c3ccc4c(c3)nc(CN3CCC(c5cccc(OCc6ccc(Cl)cc6F)n5)CC3)n4C[C@@H]3CCO3)cc12` [Compound 88], on GLP-1R [1], the IC50 (as a rule, the concentration at which inhibition is half-maximal) came out at 1.84 µM and the inhibition constant Ki (as a rule, the equilibrium dissociation constant of an inhibitor or competing ligand from its target) is 0.92 µM. Besides, the EC50 (as a rule, the midpoint of the concentration-response curve) on GLP-1R [2] was determined as 0.00445 µM.
For `Cc1n[nH]c2ccc(NC(=O)c3ccc4c(c3)nc(CN3CC=C(c5cccc(OCc6ccc(Cl)cc6F)n5)CC3)n4C[C@@H]3CCO3)cc12` [Compound 3, (S)-2-((6-((4-chloro-2-fluorobenzyl)oxy)-3′,6′-dihydro-[2,4′-bipyridin]-1′(2′H)-yl)methyl)-N-(3-methyl-1H-indazol-5-yl)-1-(oxetan-2-ylmethyl)-1H-benzo[d]imidazole-5-carboxamide], at GLP-1R [1], the IC50 was found to be 1.75 µM and the Ki was 0.876 µM. This molecule had an EC50 on GLP-1R [2] of 0.00056 µM.
For `Cc1cc(NC(=O)c2ccc3c(c2)nc(CN2CCC(c4cccc(OCc5ccc(C#N)cc5F)n4)CC2)n3C[C@@H]2CCO2)cc2cn[nH]c12` [Compound 134], in that order: 1.84 µM, 0.904 µM and 0.00085 µM.
Consider `Cc1n[nH]c2c(F)cc(C(=O)Nc3ccc4c(c3)nc(Cc3c(F)cc(-c5cccc6c5O[C@](C)(c5ccc(Cl)cn5)O6)cc3F)n4CC3CCO3)cc12` (stereo partly drawn) [Compound 387], for which, on GLP-1R [1], the IC50 came out at 0.346 µM and the Ki was 0.205 µM. This molecule also returned an EC50 at GLP-1R [2] of 0.00086 µM.
As to `CCn1cncc1Cn1c(Cc2c(F)cc(-c3cccc4c3OC(C)(c3ccc(Cl)cn3)O4)cc2F)nc2cc(NC(=O)c3cc(F)c4[nH]nc(C)c4c3)ccc21` (stereo not drawn) [Compound 409], on GLP-1R [1], the IC50 amounted to 0.486 µM and the inhibition constant Ki was 0.237 µM. At GLP-1R [2], this molecule came in with an EC50 of 0.00042 µM.
The matching figures for `Cc1n[nH]c2c(F)cc(NC(=O)c3ccc4c(c3)nc(CN3CCC(c5cccc(OCc6ccc(Cl)cc6F)n5)CC3)n4C[C@@H]3CCO3)cc12` [Compound 103]: 1.55 µM, 0.885 µM and 0.00083 µM.
For `O=C(NCC(=O)N1CC(F)(F)C[C@H]1C(=O)O)c1ccc2c(c1)nc(CN1CCC(c3cccc(OCc4ccc(Cl)cc4F)n3)CC1)n2C[C@@H]1CCO1` [Compound 62], in that order: 2.63 µM, 1.32 µM and 0.00051 µM.
The matching figures for `CCn1cncc1Cn1c(Cc2c(F)cc(-c3cccc4c3O[C@@](C)(c3ccc(Cl)cn3)O4)cc2F)nc2cc(NC(=O)c3cc(F)c4[nH]nc(C)c4c3)ccc21` [Compound 411]: 0.12 µM, 0.0726 µM and 0.00033 µM.
`CCn1cncc1Cn1c(Cc2cc(F)c(-c3cccc(OCc4ccc(Cl)cc4F)n3)cc2F)nc2cc(NC(=O)c3cc(F)c4[nH]nc(C)c4c3)ccc21` [Compound 414]: at GLP-1R [1], the IC50 is 0.0317 µM and the Ki is 0.0156 µM. This molecule also registered an EC50 at GLP-1R [2] of 0.00057 µM.
As for `Cc1n[nH]c2c(C)cc(NC(=O)c3ccc4c(c3)nc(CN3CCC(c5cccc(OCc6ccc(C#N)cc6F)n5)CC3)n4C[C@@H]3CCO3)cc12` [Compound 127], at GLP-1R [1], the IC50 amounted to 1.25 µM and the Ki is 0.744 µM. On GLP-1R [2], this molecule yielded an EC50 of 0.00015 µM.
For `Cc1n[nH]c2c(F)cc(C(=O)Nc3ccc4c(c3)nc(C3CC35CCN(c3cccc(OCc6ccc(Cl)cc6F)n3)CC5)n4CC3CCO3)cc12` (stereo not drawn) [Compound 244], at GLP-1R [1], the IC50 was 0.189 µM and the Ki is 0.11 µM. This molecule gave an EC50 at GLP-1R [2] of 0.00033 µM.
For `Cc1n[nH]c2c(C)cc(C(=O)Nc3ccc4c(c3)nc(C3CC35CCN(c3cccc(OCc6ccc(Cl)cc6F)n3)CC5)n4CC3CCO3)cc12` (stereo not drawn) [Compound 245], in that order: 0.146 µM, 0.0823 µM and 0.00051 µM.
Take `Cc1n[nH]c2c(F)cc(NC(=O)c3ccc4c(c3)nc(CN3CCC(c5cccc(OCc6ccc(C#N)cc6F)n5)CC3)n4C[C@@H]3CCO3)cc12` [Compound 126]: at GLP-1R [1], the IC50 was 1.4 µM and the Ki was 0.806 µM. Moreover, a half-maximal effect at GLP-1R [2] (EC50) was put at 0.00018 µM.
The matching figures for `Cc1n[nH]c2c(C)cc(NC(=O)c3ccc4c(c3)nc(CN3CC=C(c5cccc6c5O[C@](C)(c5ccc(Cl)cn5)O6)CC3)n4CC3CCO3)cc12` (stereo partly drawn) [Compound 383]: 1.48 µM, 0.899 µM and 0.00192 µM.
Turning to `Cc1n[nH]c2c(F)cc(C(=O)Nc3ccc4c(c3)nc(Cc3cc(F)c(-c5cccc(OCc6ccc(Cl)cc6F)n5)cc3F)n4C3COC[C@H]3O)cc12` (stereo partly drawn) [Compound 417], at GLP-1R [1], the IC50 was 0.137 µM and the Ki was 0.0692 µM. Moreover, the EC50 on GLP-1R [2] is 0.00065 µM.
For `Cc1n[nH]c2c(C)cc(NC(=O)c3ccc4c(c3)nc(CN3CC=C(c5cccc6c5O[C@@](C)(c5ccc(Cl)cn5)O6)CC3)n4CC3CCO3)cc12` (stereo partly drawn) [Compound 382], in that order: 0.689 µM, 0.342 µM and 0.0001 µM.
For `Cc1n[nH]c2ccc(NC(=O)c3ccc4c(c3)nc(CN3CC=C(c5cccc(OCc6ccc(Cl)cn6)n5)CC3)n4C[C@@H]3CCO3)cc12` [Compound 145], in that order: 1.92 µM, 0.956 µM and 0.00045 µM.
Take `O=C(Nc1ccc2c(c1)nc(CN1CC=C(c3cccc(OCc4ccc(Cl)cc4F)n3)CC1)n2C[C@@H]1CCO1)c1ccc2c(c1)C1(CC1)C(=O)N2` [Compound 203]: on GLP-1R [1], the IC50 worked out at 0.158 µM and the inhibitory constant (Ki) is 0.0903 µM. This molecule displayed an EC50 on GLP-1R [2] of 0.00024 µM.
Consider `O=C(Nc1ccc2c(c1)nc(CN1CC=C(c3cccc(OCc4ccc(Cl)cn4)n3)CC1)n2C[C@@H]1CCO1)c1ccc2[nH]c(=O)[nH]c2c1` [Compound 207], for which, on GLP-1R [1], the IC50 stood at 0.149 µM and the Ki is 0.0824 µM. The molecule also came in with an EC50 on GLP-1R [2] of 0.00043 µM.
On to `O=C(Nc1ccc2c(c1)C1(CC1)C(=O)N2)c1ccc2c(c1)nc(CN1CCC(c3cccc(OCc4ccc(Cl)cn4)n3)CC1)n2C[C@@H]1CCO1` [Compound 101], for which, at GLP-1R [1], the IC50 came out at 1.28 µM and the Ki is 0.641 µM. Further, on GLP-1R [2], the EC50 was 0.00075 µM.
With `O=C(Nc1ccc2[nH]nnc2c1)c1ccc2c(c1)nc(CN1CC=C(c3cccc(OCc4ccc(Cl)cc4F)n3)CC1)n2C[C@@H]1CCO1` [Compound 166], on GLP-1R [1], the IC50 is 2.65 µM and the Ki was 1.32 µM. Moreover, at GLP-1R [2], the EC50 was 0.00076 µM.
Regarding `Cc1n[nH]c2c(C)cc(NC(=O)c3ccc4c(c3)nc(CN3CC=C(c5cccc(OCc6ccc(C#N)c7cc(Cl)oc67)n5)CC3)n4C[C@@H]3CCO3)cc12` [Compound 354], on GLP-1R [1], the 50% inhibitory concentration (IC50) stood at 2.14 µM and the Ki is 1.06 µM. The molecule also yielded an EC50 at GLP-1R [2] of 0.00021 µM.
For `CCn1cncc1Cn1c(Cc2c(F)cc(-c3cccc(OCc4ccc(Cl)cc4F)n3)cc2F)nc2cc(NC(=O)c3cc(F)c4[nH]nc(C)c4c3)ccc21` [Compound 415], at GLP-1R [1], the IC50 turned out to be 0.233 µM and the Ki was 0.117 µM. The EC50 at GLP-1R [2] was determined as 0.00071 µM.
The matching figures for `Cc1n[nH]c2c(C)cc(C(=O)Nc3ccc4c(c3)nc(CN3CC=C(c5cccc6c5O[C@](C)(c5ccc(Cl)cc5F)O6)CC3)n4CC3CCO3)cc12` (stereo partly drawn) [Compound 385]: 0.158 µM, 0.0827 µM and 0.00061 µM.
The matching figures for `Cc1n[nH]c2c(C)cc(NC(=O)c3ccc4nc(CN5CC=C(c6cccc(OCc7ccc(C#N)cc7F)n6)CC5)n(CC5CCO5)c4c3)cc12` (stereo not drawn) [Compound 276]: 2.46 µM, 1.01 µM and 0.00065 µM.
The matching figures for `Cc1cc(NC(=O)c2ccc3c(c2)nc(CN2CCC(c4cccc(OCc5ccc(Cl)cc5F)n4)CC2)n3C[C@@H]2CCO2)cc2c1NC(=O)C21CC1` [Compound 105]: 1.95 µM, 1 µM and 0.00078 µM.
As to `Cc1n[nH]c2c(C)cc(C(=O)Nc3ccc4c(c3)nc(CN3CC=C(c5cccc(OCc6ccc(C#N)cc6F)n5)CC3)n4C[C@@H]3CCO3)cc12` [Compound 229], at GLP-1R [1], the IC50 turned out to be 0.121 µM and the inhibition constant (Ki) was 0.0759 µM. Besides, the EC50 at GLP-1R [2] stood at 0.00021 µM.
For `CCn1cncc1Cn1c(CN2CC=C(c3cccc(OCc4ccc(Cl)cc4F)n3)CC2)nc2cc(NC(=O)c3cc(F)c4[nH]nc(C)c4c3)ccc21` [Compound 408], in that order: 0.106 µM, 0.0684 µM and 0.00021 µM.
For `O=C(Nc1ccc2c(c1)nc(CN1CC=C(c3cccc(OCc4ccc(Cl)cc4F)n3)CC1)n2C[C@@H]1CCO1)c1ccc2[nH]c(=O)[nH]c2c1` [Compound 142], in that order: 2.01 µM, 1 µM and 0.00021 µM.
For `Cc1n[nH]c2ccc(C(=O)Nc3ccc4c(c3)nc(CN3CC=C(c5cccc(OCc6ccc(Cl)cn6)n5)CC3)n4C[C@@H]3CCO3)cc12` [Compound 391], in that order: 0.116 µM, 0.0703 µM and 0.00091 µM.

These data come from patent US20230271949A1, “GLP-1R MODULATING COMPOUNDS” (ASCLETIS BIOSCIENCE CO., LTD., priority 2022, published 2023).
